Test results from article PMC9312113, “Bioactive Components from Ampelopsis japonica with Antioxidant, Anti-α-Glucosidase, and Antiacetylcholinesterase Activities” (Antioxidants, 2022).
Where two headings read alike, the source gives them in different places.

How the values were obtained:
[1] = ABTS radical scavenging assay; conditions: n = 3
Method: This assay was assessed using the procedure previously described.

[2] = Ferric reducing antioxidant power (FRAP) assay
Method: The FRAP assay was measured using the procedure previously described.

[3] = DPPH radical scavenging activity; conditions: n = 3
Method: This assay was determined using the procedure previously reported.

[4] = biological target: acetylcholinesterase (AChE) (Electrophorus electricus, UniProt O42275); experiment: biochemical
[5] = Superoxide radical scavenging assay; conditions: isolated compounds (Table 5); n = 3
Method: This assay was determined by the method previously described.

[6] = solvent extracts (Table 2), concentration causing 50% free radical scavenging
[7] = isolated compounds (Table 5), Trolox equivalents
[8] = isolated components (Table 6), read-out: IC50 AChE (converted)

acetylcholinesterase (AChE), sequence (O42275 24-633): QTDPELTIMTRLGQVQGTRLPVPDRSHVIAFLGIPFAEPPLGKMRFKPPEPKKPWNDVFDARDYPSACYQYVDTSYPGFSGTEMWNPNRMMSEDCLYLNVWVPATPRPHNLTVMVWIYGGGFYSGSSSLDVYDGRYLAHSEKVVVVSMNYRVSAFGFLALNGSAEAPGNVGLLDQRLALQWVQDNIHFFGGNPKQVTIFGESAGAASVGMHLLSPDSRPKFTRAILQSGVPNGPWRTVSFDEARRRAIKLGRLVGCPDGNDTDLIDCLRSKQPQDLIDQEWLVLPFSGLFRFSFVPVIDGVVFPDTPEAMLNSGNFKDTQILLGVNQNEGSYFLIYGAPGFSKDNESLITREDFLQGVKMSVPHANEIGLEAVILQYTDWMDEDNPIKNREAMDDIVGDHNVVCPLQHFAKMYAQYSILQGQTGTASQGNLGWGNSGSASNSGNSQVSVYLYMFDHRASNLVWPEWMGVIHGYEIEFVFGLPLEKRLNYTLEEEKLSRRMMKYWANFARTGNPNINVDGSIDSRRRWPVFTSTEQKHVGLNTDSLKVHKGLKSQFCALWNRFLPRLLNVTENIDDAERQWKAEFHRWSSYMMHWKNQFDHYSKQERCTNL

Row | SMILES | SC50 ABTS ([1]; isolated compounds (Table 5)) [µg/mL] | SC50 ABTS [1, 6] [µg/mL] | FRAP, TE [2, 7] | FRAP, TE ([2]; solvent extracts (Table 2), millimolar of Trolox equivalents per gram of extract) [mM/g] | SC50 DPPH ([3]; isolated compounds (Table 5)) [µg/mL] | SC50 DPPH [3, 6] [µg/mL] | IC50 [4, 8] [µM] | IC50 ([4]; solvent extracts (Table 3), read-out: IC50 AChE (converted)) [µM] | SC50 Superoxide [5] [µg/mL] | IC50 [4] [µM]
1 | Cc1cc(C(C)(C)C)c(O)c(C(C)(C)C)c1 [BHT, butylated hydroxytoluene, reference compound] | 17.36 ± 3.14 | 14.09 ± 0.24 | 3997.23 ± 144.35 mM/g | 4257.97 ± 145.90 | 36.99 ± 4.54 | 33.04 ± 2.12 |  |  |  | 
2 | O=C(/C=C/c1ccc(O)c(O)c1)O[C@@H]1C[C@](O)(C(=O)O)C[C@@H](O)[C@H]1O [Chlorogenic acid, chlorogenic acid, reference compound] |  |  |  |  |  |  | 182 | 188 |  | 
3 | Oc1cc(O)c2c(c1)O[C@H](c1ccc(O)c(O)c1)[C@@H](O)C2 [Compound 1, catechin] | 2.23 ± 0.22 |  | 8729.33 ± 424.55 mM/g |  | 10.08 ± 3.09 |  | 90.8 |  | 64.43 ± 7.73 | 
4 | O=C(O)c1cc(O)c(O)c(O)c1 [Compound 2, gallic acid] | 1.45 ± 0.14 |  | 28,512.82 ± 43.27 mM/g |  | 2.60 ± 0.67 |  |  |  | 47.40 ± 3.01 | 244
5 | O=c1c(O)c(-c2ccc(O)cc2)oc2cc(O)cc(O)c12 [Compound 3, kaempferol] | 5.24 ± 0.45 |  | 7912.47 ± 220.08 mM/g |  | 12.48 ± 3.01 |  |  |  |  | 
6 | O=c1c(O)c(-c2ccc(O)c(O)c2)oc2cc(O)cc(O)c12 [Compound 4, quercetin] | 3.15 ± 0.49 |  | 16,038.26 ± 86.89 mM/g |  | 3.36 ± 0.58 |  |  |  | 31.89 ± 2.03 | 
7 | C[C@@H]1CC[C@]2(C(=O)O)CC[C@]3(C)C(=CC[C@@H]4[C@@]5(C)C[C@@H](O)[C@@H](O)C(C)(C)[C@@H]5CC[C@]43C)[C@@H]2[C@]1(C)O [Compound 5, euscaphic acid] | >400 |  | 8.67 ± 3.93 mM/g |  | >400 |  | 23.8 |  | >400 | 
8 | Oc1ccc(/C=C/c2cc(O)cc(O)c2)cc1 [Compound 6, resveratrol] |  |  |  |  |  |  |  |  |  | 354
9 | Oc1cc(O)c2c(c1)O[C@H](c1ccc(O)c(O)c1)[C@H](O)C2 [Compound 7, epicatechin] | 3.78 ± 0.03 |  | 13,122.77 ± 182.42 mM/g |  | 2.78 ± 0.25 |  | 184 |  | 41.76 ± 4.20 | 
